The values below come from PMC9754640, “Z-REX uncovers a bifurcation in function of Keap1 paralogs” (eLife, 2022).

Molecules are shown by their SMILES.

In experiment [1] the target is T1, hKeap1 (Homo sapiens, UniProt Q14145).
T1 construct: gene KEAP1; full-length, His6-HaloTag-TEV fusion (2xHA C-terminal in fish); TEV-cleaved after lysis, about 70 kDa; expressed in HEK293T cells or zebrafish embryos
Put plainly: Z-REX in zebrafish embryos, biotin-azide Click, streptavidin pulldown, western blot. The settings on record: covalent; alkyne-labelled compound released from Ht-PreDE (6 uM) in live embryos; also labelled by bolus DE. In general terms: In western blotting, separated proteins are transferred to a membrane and probed.

Experiment [2] has as its target T1, hKeap1. Put plainly: T-REX photouncaging in HEK293T, TEV cleavage, Cy5-azide Click in-gel fluorescence. It counts as cell-based. The settings on record: covalent; alkyne-labelled compound released from Ht-PreHNE bound to HaloTag (25 uM in methods), live cells.
In experiment [3] the target is T2, zKeap1b (Danio rerio, UniProt A0A2R8Q1W5).
T2 construct: gene keap1b; full-length, myc-HaloTag-TEV-3xFlag N-terminal fusion, TEV-cleaved after lysis; HEK293T expression
T2 sequence (A0A2R8Q1W5 1-593 isoform A0A2R8Q1W5-3): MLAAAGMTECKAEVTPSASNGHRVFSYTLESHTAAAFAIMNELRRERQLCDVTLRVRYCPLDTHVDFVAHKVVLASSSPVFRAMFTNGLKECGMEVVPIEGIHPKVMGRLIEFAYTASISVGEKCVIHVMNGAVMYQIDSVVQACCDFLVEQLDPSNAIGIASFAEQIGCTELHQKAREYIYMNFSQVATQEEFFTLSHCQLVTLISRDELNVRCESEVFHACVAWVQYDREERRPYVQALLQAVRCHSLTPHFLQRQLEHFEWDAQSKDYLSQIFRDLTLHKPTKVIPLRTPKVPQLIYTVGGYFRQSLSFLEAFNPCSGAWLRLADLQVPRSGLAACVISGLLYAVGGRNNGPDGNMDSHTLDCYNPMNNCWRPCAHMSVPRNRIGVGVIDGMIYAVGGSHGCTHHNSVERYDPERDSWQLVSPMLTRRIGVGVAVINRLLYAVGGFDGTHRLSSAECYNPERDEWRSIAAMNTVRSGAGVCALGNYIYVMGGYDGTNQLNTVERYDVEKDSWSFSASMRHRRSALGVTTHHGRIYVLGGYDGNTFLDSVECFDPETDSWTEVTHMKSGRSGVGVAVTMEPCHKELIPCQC
The experiment is described as above. The following applies: covalent; alkyne-labelled compound released from Ht-PreHNE bound to HaloTag (25 uM in methods), live cells. It counts as cell-based.

Experiment [4] addresses T3, hKeap1 (Homo sapiens, UniProt Q14145, C273I).
T3 construct: gene KEAP1; full-length, His6-HaloTag-TEV fusion (2xHA C-terminal in fish); TEV-cleaved after lysis, about 70 kDa; expressed in HEK293T cells or zebrafish embryos
Described as above. The following applies: covalent; alkyne-labelled compound released from Ht-PreHNE bound to HaloTag (25 uM in methods), live cells. The format is cell-based.

Experiment [5] concerns the target T4, zKeap1a (Danio rerio, UniProt Q1ECZ2).
T4 construct: gene keap1a; full-length, myc-HaloTag-TEV-3xFlag N-terminal fusion, TEV-cleaved after lysis; HEK293T expression
T4 sequence (Q1ECZ2 1-601): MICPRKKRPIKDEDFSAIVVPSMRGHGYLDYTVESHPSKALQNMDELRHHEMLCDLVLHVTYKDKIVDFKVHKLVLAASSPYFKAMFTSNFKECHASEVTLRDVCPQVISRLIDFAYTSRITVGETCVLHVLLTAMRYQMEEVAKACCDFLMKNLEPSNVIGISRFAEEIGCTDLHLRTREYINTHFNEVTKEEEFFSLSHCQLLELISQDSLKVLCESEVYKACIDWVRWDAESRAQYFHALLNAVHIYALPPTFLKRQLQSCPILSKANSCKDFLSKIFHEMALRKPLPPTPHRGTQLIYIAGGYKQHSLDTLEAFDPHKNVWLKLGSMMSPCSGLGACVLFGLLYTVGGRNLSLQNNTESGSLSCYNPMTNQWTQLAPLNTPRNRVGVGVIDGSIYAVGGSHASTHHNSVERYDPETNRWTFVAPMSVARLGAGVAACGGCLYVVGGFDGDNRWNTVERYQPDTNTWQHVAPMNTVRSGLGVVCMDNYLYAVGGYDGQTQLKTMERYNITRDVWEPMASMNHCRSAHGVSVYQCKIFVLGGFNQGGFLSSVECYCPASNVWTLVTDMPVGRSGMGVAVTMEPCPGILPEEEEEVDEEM
The experiment is described as above. The settings on record: covalent; alkyne-labelled compound released from Ht-PreHNE bound to HaloTag (25 uM in methods), live cells. It counts as cell-based.

Experiment [6] addresses T1, hKeap1. Described as above. The format is cell-based. The following applies: covalent; alkyne-labelled compound released from Ht-PreNE bound to HaloTag (10 uM in legend, 25 uM in methods), live cells.
Experiment [7] deals with T4, zKeap1a. The description is as above. The format is cell-based. The following applies: covalent; alkyne-labelled compound released from Ht-PreNE bound to HaloTag (10 uM in legend, 25 uM in methods), live cells.
The target of experiment [8] is T3, hKeap1. The description is as above. The format is cell-based. The settings on record: covalent; alkyne-labelled compound released from Ht-PreNE bound to HaloTag (10 uM in legend, 25 uM in methods), live cells.
Experiment [9] concerns the target T2, zKeap1b. The experiment is described as above. The format is cell-based. The settings on record: covalent; alkyne-labelled compound released from Ht-PreNE bound to HaloTag (10 uM in legend, 25 uM in methods), live cells.

T1 sequence (Q14145 whole entry, the tested form may be a part): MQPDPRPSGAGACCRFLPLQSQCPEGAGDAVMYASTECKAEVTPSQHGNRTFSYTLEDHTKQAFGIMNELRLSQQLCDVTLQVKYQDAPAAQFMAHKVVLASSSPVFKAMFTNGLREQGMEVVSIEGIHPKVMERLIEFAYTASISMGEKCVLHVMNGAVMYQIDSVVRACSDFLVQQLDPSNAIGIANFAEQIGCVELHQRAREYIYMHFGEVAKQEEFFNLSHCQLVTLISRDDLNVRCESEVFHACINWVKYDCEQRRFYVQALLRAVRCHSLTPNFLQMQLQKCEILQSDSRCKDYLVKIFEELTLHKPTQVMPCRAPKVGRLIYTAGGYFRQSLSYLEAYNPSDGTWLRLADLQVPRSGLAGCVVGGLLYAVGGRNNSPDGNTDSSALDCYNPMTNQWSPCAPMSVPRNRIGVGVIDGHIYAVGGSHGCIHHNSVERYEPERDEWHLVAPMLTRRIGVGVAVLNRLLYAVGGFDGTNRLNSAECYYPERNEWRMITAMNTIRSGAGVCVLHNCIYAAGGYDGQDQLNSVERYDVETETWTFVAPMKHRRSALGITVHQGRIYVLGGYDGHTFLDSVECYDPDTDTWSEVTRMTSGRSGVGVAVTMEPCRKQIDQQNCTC
T3 sequence (Q14145 whole entry C273I, the tested form may be a part): as the sequence (Q14145 whole entry, the tested form may be a part) above, with C273I counted along it

For the molecule `C#CCCCC/C=C/C(C)=O` [DE], the “Z-REX in zebrafish embryos, biotin-azide Click, streptavidin pulldown, western b” value on hKeap1 [1] is recorded as “using DE as an example that hKeap1-labeling extent was similar to that achieved with HNE”.
On to `C#CCCCC(O)/C=C/C=O` (stereo not drawn) [HNE], for which the “T-REX photouncaging in HEK293T, TEV cleavage, Cy5-azide Click in-gel fluorescenc” value on hKeap1 [2], at zKeap1b [3], on hKeap1 [4] and on zKeap1a [5] was “all four proteins sensed HNE equally well” in each case.
As for `C#CCCCC/C=C/C=O` [NE], the targeting efficiency entry at hKeap1 [6] was “hKeap1 and hKeap1(C273I) sensed NE marginally better than zKeap1a/b”; on zKeap1a [7], “zKeap1a/b, both of which sensed NE to the same extent”; on hKeap1 [8], “hKeap1 and hKeap1(C273I) sensed NE marginally better than zKeap1a/b”; at zKeap1b [9] it was “zKeap1a/b, both of which sensed NE to the same extent”.
